System: acid secretion of the perfused rat stomach stimulated by pentagastrin
Assay: Investigation of the secretion-inhibiting effect on the perfused rat stomach
Assay type: in vivo, rat (CD rats, female)
Settings: for Maximum inhibition of acid secretion: N = 3, vs untreated control group, pentagastrin stimulation
Text: The effect of the compounds according to the invention after intravenous administration on the acid secretion of the perfused rat stomach stimulated by pentagastrin in vivo is shown in the following Table 2.
The abdomen of anesthesized rats (CD rats, female, 200-250 g; 1.5 g/kg i.m. of urethane) was opened after tracheotomy by a median upper abdominal incision and a PVC catheter was fixed transorally in the esophagus and a further one via the pylorus in such a way that the ends of the tubes just projected into the stomach lumen. The catheter leading from the pylorus led outwards via a side opening in the right-hand abdominal wall.
After thorough irrigation (about 50-100 ml), a flow of warm physiological NaCl solution at 37° C. was continuously passed through the stomach (0.5 ml/min, pH 6.8-6.9; Brun-Unita I). The pH (pH meter 632, glass electrode EA 147; .phi.=5 mm, Metrohm) was determined in the effluent collected (25 ml measuring cylinder) at 15 min intervals in each case and the secreted HCl by titration with a freshly prepared 0.01 N NaOH solution to pH 7 (Dosimat 655 Metrohm).
The stimulation of gastric secretion was effected by continuous infusion of 1 μg/kg (=1.65 ml/h) i.v. of pentagastrin (left femoral vein) about 30 min after the end of the operation (i.e. after determination of 2 preliminary fractions). The substances to be tested were administered intravenously (left jugular vein) in a 1 ml/kg liquid volume 60 min after the start of continuous pentagastrin infusion.
The body temperature of the animals was kept at a constant 37.8°-38° C. by infrared irradiation and heating pads (automatic, stepless control via rectal temperature sensor).
The maximum decrease in acid secretion (15 min fractions) of each treated group compared to that of the untreated control group (=100%) was used as a measure of the secretion-inhibiting effect.

SMILES: Cc1c(CO)c2cnnc(OCc3ccc(F)cc3)c2n1Cc1ccccc1 [Example 1a, 1-Benzyl-7-(4-fluorobenzyloxy)-3-hydroxymethyl-2-methylpyrrolo[2,3-d]pyridazine]
- ED50 (Rattus norvegicus, iv, dose (interpolated) which causes a maximum inhibition of HCl secretion by 50%, read-out: approx. ED50): ~1.1 µmol/kg
- Maximum inhibition of acid secretion (dose 0.3 μmol/kg i.v.): 22%
- Maximum inhibition of acid secretion (dose 1.0 μmol/kg i.v.): 52%
- Maximum inhibition of acid secretion (dose 3.0 μmol/kg i.v.): 70%
- Maximum inhibition of acid secretion (dose 10.0 μmol/kg i.v.): 94%

Reference: patent US5534515A, “Pyrrolopyridazines having gastrointestinal protective effects” (BYK Gulden Lomberg Chemische Fabrik GmbH, priority 1991, dated 1996)
